Assay results from patent US20110104159A1, “COMPOSITIONS AND METHODS FOR TREATING, CONTROLLING, REDUCING, AMELIORATING, OR PREVENTING ALLERGY” (priority 2006, published 2011).
“And” between values parts separate entries of the source, which are not always exact repeats. Equal entries are not always repeated. Where two headings read alike, the source gives them in different places.

Tests used:
[1] = tested on: human HMC-1 cells; experiment: Ionomycin-induced cytokine/chemokine release in HMC-1 cells (Luminex); format: cell-based; settings: HMC1, 18 h after ionomycin, 95% confidence limits in brackets
Method: A human mast cell line (HMC-1), a kind gift from Prof.
After 18 h stimulation at 37° C. in a 5% CO2 atmosphere, Interleukin-8 (IL-8) was measured in supernatants obtained from […] with a commercial ELISA kit from R&D Systems. The threshold sensitivity was 5 pg/ml and the inter- and intra-assay variations were less than 5%. The supernatants obtained from HMC-1 cells were aliquoted in duplicates for interleukin-6 (IL-6), IL-8, chemokine (C-C motif) ligand 5 (CCL5)/regulated upon activation, normal T-cell expressed and secreted (RANTES) and tumor necrosis factor-α (TNF-α) analysis using a high-throughput multiplex Luminex technology (Luminex 200 System; Luminex, Austin, Tx, USA) and Beadview software version 1.0 (Upstate Cell Signaling Solutions, Temecula, Calif.). Standard curves for known concentrations of recombinant human cytokines were used to convert median fluorescence intensities to cytokine concentrations in pg/ml. Only the linear portions of the standard curves were used to quantify cytokine concentrations, and in instances where the fluorescence reading exceeded the linear range of the standard curve, an appropriate dilution was performed to ensure that the concentration was in the linear portion of the curve.
The effect of BOL-303242-X on secretion of the reported cytokines and chemokines, 18 h after ionomycin ([…]) stimulation of HMC-1 cells, was determined in comparison to dexamenthasone. Compounds (1 nM-1000 nM) were added 45 min before ionomycin. Values were calculated by analyzing at least three separated experiments where concentration-response curves were measured. ^a95% Confidence limits.

[2] = tested on: normotensive rabbits; settings: topical eye drops, normotensive rabbits [27]; cited from earlier work
[3] = tested on: eosinophil peroxidase; experiment: Eosinophil peroxidase assay in guinea pig conjunctiva; format: in vivo; settings: 0.4% eye drops; 24 h after antigen challenge
Method: Male Dunkin-Hartley guinea pigs were actively immunized by i.p. injection of 200 μg OVA in 2 ml saline with 40 mg aluminum hydroxide (positive control) or saline alone (negative control), as previously reported. […] Negative controls received saline alone.
Conjunctival clinical symptoms were rated blind on both eyes using the following scale: 0, no symptoms; 1, slight conjunctival redness with or without tears; 2, mild conjunctival redness with tears and mild chemosis; 3, mild conjunctival redness with tears and moderate chemosis; 4, severe conjunctival redness with tears and partial lid eversion; 5, severe conjunctival redness with tears and lids more than half closed. […] The number of eosinophils in each field was counted under light microscopy (×500 magnification). In the other sample eosinophil peroxidase activity was measured.
Eosinophil peroxidase was assayed as previously reported in conjunctival samples obtained as above described. […] Absorbance was measured using a spectrophotometer (JASCO V-530, Jasco, UK) at 490 nm. […] Eosinophil peroxidase activity was measured according to the method of Strath et al., which is based on the oxidation of o-phenylenediamine by eosinophil peroxidase in the presence of hydrogen peroxide. One unit corresponds to 1 mmol of hydrogen peroxide decomposed for […], and the results were expressed as eosinophil peroxidase levels (mU of enzyme/mg wet tissue).

[4] = tested on: leukocytes (PMN); experiment: Leukocytes (PMN) measurement in aqueous humor; format: in vivo, Rabbit; settings: for PMN in aqueous humor at the second paracentesis, Mean: group mean; for PMN in aqueous humor at the second paracentesis: individual eye sample, listed as BOL
Method: Each rabbit was placed in a restraint device and tagged with the alphanumeric code. The formulations were instilled (50 μl) into the conjunctival sac of both eyes 180, 120, 90 and 30 min before the first paracentesis; then 15, 30, 90 min after the first paracentesis. To perform the first paracentesis the animals were anaesthetized by intravenous injection of 5 mg/kg Zoletil® (Virbac; 2.5 mg/kg tiletamine HCl and 2.5 mg/kg zolazepam HCl) and one drop of local anesthetic (Novesina®, Novartis) was administered to the eye. Anterior chamber paracentesis was performed with a 26 G needle attached to a tuberculin syringe; the needle was introduced into the anterior chamber through the cornea, taking care not to damage the tissues. Two hours after the first paracentesis, the animals were sacrificed with 0.4 ml Tanax® (Intervet International B.V.) and the second paracentesis was performed. About 100 μl of aqueous humor were removed at the second paracentesis. Aqueous humor was immediately split in four aliquots and stored at −80° C. until analysis. Then both eyes were enucleated and the iris-ciliary body was carefully excised, placed in polypropylene tubes, and stored at −80° C. until analysis.
For the determination of the number of leukocytes we used a haemocytometer (Improved Neubauer Chamber; Brigth-line, Hausser Scientific) and a Polyvar 2 microscope (Reichert-Jung).

[5] = tested on: rabbit paracentesis model; experiment: Clinical evaluation by slit lamp (clinical score), rabbit paracentesis model; format: in vivo; design: key to Clinical Score −180 min / Clinical Score −5 min / Clinical Score +115 min: 0: normal; 1: discrete dilatation of iris and conjunctival vessels; 2: moderate dilatation of iris and conjunctival vessels; 3: intense iridal hyperemia with flare in the anterior chamber; 4: intense iridal hyperemia with flare in the anterior chamber and presence of fibrinous exudates; settings: for Clinical Score −5 min: 5 min before first paracentesis; for Clinical Score −5 min / Clinical Score +115 min / Clinical Score −180 min: individual eye, scale 0-4; for Clinical Score +115 min: 5 min before second paracentesis; for Clinical Score −180 min: basal

Cc1ccc2c(NC[C@](O)(CC(C)(C)c3cc(F)cc4c3OCC4)C(F)(F)F)cccc2n1 [BOL-303242-X, (R)-1,1,1-Trifluoro-4-(5-fluoro-2,3-dihydrobenzofuran-7-yl)-4-methyl-2-{[(2-methyl-5-quinolyl)amino]methyl}pentan-2-ol]
IC50 ([1]; read-out: IC50 (nM), CCL5/RANTES release induced by ionomycin): 88.7 nM | IC50 ([1]; read-out: IC50 (nM), Interleukin-6 release induced by ionomycin): 83.2 nM | IC50 ([1]; read-out: IC50 (nM), Interleukin-8 release induced by ionomycin): 66.5 nM | IC50 ([1]; read-out: IC50 (nM), TNF-α release induced by ionomycin): 43.8 nM | Ability to increase intraocular pressure compared to dexamethasone [2]: reduced ability to increase intraocular pressure | Conjunctival eosinophil peroxidase activity [3]: noteworthy reduction | PMN in aqueous humor at the second paracentesis, Mean ([4]; 0.1% topical): 28.333 number/μl | PMN in aqueous humor at the second paracentesis ([4]; 0.1% topical): 20 number/μl (4×) and 40 number/μl and 50 number/μl | PMN in aqueous humor at the second paracentesis, Mean ([4]; 0.5% topical): 21.250 number/μl | PMN in aqueous humor at the second paracentesis ([4]; 0.5% topical): 40 number/μl (2×) and 20 number/μl (3×) and 10 number/μl (3×) | PMN in aqueous humor at the second paracentesis, Mean ([4]; 1% topical): 28.750 number/μl | PMN in aqueous humor at the second paracentesis ([4]; 1% topical): 30 number/μl (3×) and 20 number/μl (3×) and 40 number/μl (2×) | Clinical Score −5 min ([5]; 0.1% topical): 0 | Clinical Score +115 min ([5]; 0.1% topical, listed as BOL): 2 (6×) and 3 (2×) | Percentage of eyes with clinical score 2 ([5]; 0.1% topical, +115 min, 8 eyes): 75% | Percentage of eyes with clinical score 3 ([5]; 0.1% topical, +115 min, 8 eyes): 25% | Clinical Score −180 min ([5]; 0.1% topical): 0 | Percentage of eyes with clinical score 0 ([5]; 0.1% topical, −5 min, 8 eyes): 100% | Percentage of eyes with clinical score 0 ([5]; 0.1% topical, −180 min, 8 eyes): 100% | Clinical Score −5 min ([5]; 0.5% topical): 0 | Clinical Score +115 min ([5]; 0.5% topical, listed as BOL): 2 (5×) and 1 (3×) | Percentage of eyes with clinical score 1 ([5]; 0.5% topical, +115 min, 8 eyes): 37.5% | Percentage of eyes with clinical score 2 ([5]; 0.5% topical, +115 min, 8 eyes): 62.5% | Clinical Score −180 min ([5]; 0.5% topical): 0 | Percentage of eyes with clinical score 0 ([5]; 0.5% topical, −5 min, 8 eyes): 100% | Percentage of eyes with clinical score 0 ([5]; 0.5% topical, −180 min, 8 eyes): 100% | Clinical Score −5 min ([5]; 1% topical): 0 | Clinical Score +115 min ([5]; 1% topical): 2 | Percentage of eyes with clinical score 2 ([5]; 1% topical, +115 min, 8 eyes): 100% | Clinical Score −180 min ([5]; 1% topical): 0 | Percentage of eyes with clinical score 0 ([5]; 1% topical, −5 min, 8 eyes): 100% | Percentage of eyes with clinical score 0 ([5]; 1% topical, −180 min, 8 eyes): 100%
